Results reported in patent US12522612B2, “PDE4 inhibitors, pharmaceutical compositions, and therapeutic applications” (BioTheryX, Inc., priority 2019, dated 2026).

System: TNF-α
Experiment: Cell-based TNF-α inhibition assay in LPS-induced PBMCs (Meso Scale)
Conditions: PBMC, PBMCs pretreated 1 h, LPS 100 ng/mL 18-24 h, relative to stimulated DMSO control; for inhibition at 0.1 µM: compound concentration 0.1 μM; for inhibition at 1 µM: compound concentration 1 μM
Experimental: Frozen primary blood mononuclear cells (PBMCs) were quick thawed, washed once with RPMI 1640 media supplemented with 10% fetal bovine serum, 1% penicillin, and 1% streptomycin, and plated in a 96 well plate at 200,000 cells per well. The cells were pretreated with DMSO only as a control or a compound for 1 h, and then induced with LPS (lipopolysaccharide) (100 ng/mL) for 18-24 h. The supernatant was analyzed for TNF-α using the Meso Scale assay. Compound activity was determined as a percentage of the stimulated DMSO control. The results are summarized in Table 1, where A represents a percent inhibition value ≥60%; B represents a percent inhibition value <60% and ≥40%; C represents a percent inhibition value <40% and >20%; and D represents a single percent inhibition value <20%.

Row | Structure (SMILES) | inhibition at 0.1 µM [%] | inhibition at 1 µM [%]
1 | O=C1CCC(N2C(=O)c3cccc(NCCOCCOCCOCCOc4ccc(C(=O)Nc5c(Cl)cncc5Cl)cc4OC(F)F)c3C2=O)C(=O)N1 (centres unmarked) [Compound B74, N-(3,5-Dichloropyridin-4-yl)-3-(difluoromethoxy)-4-(2-(2-(2-(2-((2-(2,6-dioxopiperidin-3-yl)-1,3-dioxoisoindolin-4-yl)amino)ethoxy)ethoxy)ethoxy)ethoxy)benzamide] | ≥ 60 | ≥ 60
2 | O=C1CCC(N2Cc3c(cc(F)cc3C3CCN(CCCCCCCCCCCCOc4cc(C(=O)Nc5c(Cl)cncc5Cl)ccc4OC(F)F)CC3)C2=O)C(=O)N1 (centres unmarked) [Compound B73, N-(3,5-Dichloropyridin-4-yl)-4-(difluoromethoxy)-3-((12-(4-(2-(2,6-dioxopiperidin-3-yl)-6-fluoro-1-oxoisoindolin-4-yl)piperidin-1-yl)dodecyl)oxy)benzamide] | ≥ 60 | ≥ 60
3 | CCOc1cc([C@@H](CS(C)(=O)=O)N2C(=O)c3cccc(NC(=O)CCCCCCCCN4CCC(c5cc6c(cc5F)C(=O)N(C5CCC(=O)NC5=O)C6)CC4)c3C2=O)ccc1OC (stereo partly drawn) [Compound B75, 9-(4-(2-(2,6-Dioxopiperidin-3-yl)-6-fluoro-1-oxoisoindolin-5-yl)piperidin-1-yl)-N-(2-((S)-1-(3-ethoxy-4-methoxyphenyl)-2-(methylsulfonyl)ethyl)-1,3-dioxoisoindolin-4-yl)nonanamide] | ≥ 60 | ≥ 60
4 | Cc1ncsc1-c1ccc(CNC(=O)[C@@H]2C[C@@H](O)CN2C(=O)[C@@H](NC(=O)CCCCCCCCOc2cc(C(=O)Nc3c(Cl)cncc3Cl)ccc2OC(F)F)C(C)(C)C)cc1 [Compound B68, (2S,4R)-1-((S)-2-(9-(5-((3,5-Dichloropyridin-4-yl)carbamoyl)-2-(difluoromethoxy)phenoxy)nonanamido)-3,3-dimethylbutanoyl)-4-hydroxy-N-(4-(4-methylthiazol-5-yl)benzyl)pyrrolidine-2-carboxamide] | ≥ 60 | ≥ 60
5 | CCOc1cc([C@H](CS(=O)(=O)C2CC2)N2C(=O)c3csc(NC(C)=O)c3C2=O)ccc1OC [Compound A10, (R)—N-(5-(2-(cyclopropylsulfonyl)-1-(3-ethoxy-4-methoxyphenyl)ethyl)-4,6-dioxo-5,6-dihydro-4H-thieno[3,4-c]pyrrol-1-yl)acetamide] | < 20 | ≥ 60
6 | O=C1CCC(N2Cc3c(cc(F)cc3C3CCN(CCCCCCCCCOc4cc(C(=O)Nc5c(Cl)cncc5Cl)ccc4OC(F)F)CC3)C2=O)C(=O)N1 (centres unmarked) [Compound B45, N-(3,5-Dichloropyridin-4-yl)-4-(difluoromethoxy)-3-((9-(4-(2-(2,6-dioxopiperidin-3-yl)-6-fluoro-1-oxoisoindolin-4-yl)piperidin-1-yl)nonyl)oxy)benzamide] | – | ≥ 60
7 | COc1ccc(N2Cc3ccc(N)cc3C2=O)cc1OCCCCCCCN1CCC(c2cc(F)cc3c2CN(C2CCC(=O)NC2=O)C3=O)CC1 (centres unmarked) [Compound B60, 3-(4-(1-(7-(5-(6-Amino-1-oxoisoindolin-2-yl)-2-methoxyphenoxy)heptyl)piperidin-4-yl)-6-fluoro-1-oxoisoindolin-2-yl)piperidine-2,6-dione] | – | 20 to 40
8 | COc1ccc([C@H](CS(C)(=O)=O)N2C(=O)c3csc(NC(C)=O)c3C2=O)cc1OC1CC1 [Compound A5, (R)—N-(5-(1-(3-cyclopropoxy-4-methoxyphenyl)-2-(methylsulfonyl)ethyl)-4,6-dioxo-5,6-dihydro-4H-thieno[3,4-c]pyrrol-1-yl)acetamide] | < 20 | 20 to 40
9 | COc1ccc(C2CNC(=O)C2)cc1OCCCCCCCN1CCC(c2cc3c(cc2F)C(=O)N(C2CCC(=O)NC2=O)C3)CC1 (centres unmarked) [Compound B55, 3-(6-Fluoro-5-(1-(7-(2-methoxy-5-(5-oxopyrrolidin-3-yl)phenoxy)heptyl)piperidin-4-yl)-1-oxoisoindolin-2-yl)piperidine-2,6-dione] | – | 20 to 40
10 | CCOc1cc([C@@H](CS(=O)(=O)C2CC2)N2C(=O)c3csc(NC(=O)COC)c3C2=O)ccc1OC [Compound A11, (S)—N-(5-(2-(cyclopropylsulfonyl)-1-(3-ethoxy-4-methoxyphenyl)ethyl)-4,6-dioxo-5,6-dihydro-4H-thieno[3,4-c]pyrrol-1-yl)-2-methoxyacetamide] | 20 to 40 | ≥ 60
11 | CCOc1cc([C@@H](CS(C)(=O)=O)N2Cc3c(NC(=O)C4CC4)csc3C2=O)ccc1OC [Compound A3, (S)—N-(5-(1-(3-ethoxy-4-methoxyphenyl)-2-(methylsulfonyl)ethyl)-6-oxo-5,6-dihydro-4H-thieno[2,3-c]pyrrol-3-yl)cyclopropanecarboxamide] | 20 to 40 | 20 to 40
12 | COc1ccc(N2C(=O)c3ccc(NCCCCCCCN4CCC(c5cc(F)cc6c5CN(C5CCC(=O)NC5=O)C6=O)CC4)cc3C2=O)cc1OC1CCCC1 (centres unmarked) [Compound B54, 2-(3-(Cyclopentyloxy)-4-methoxyphenyl)-5-((7-(4-(2-(2,6-dioxopiperidin-3-yl)-6-fluoro-1-oxoisoindolin-4-yl)piperidin-1-yl)heptyl)amino)isoindoline-1,3-dione] | – | 20 to 40
13 | CCOc1cc([C@@H](CS(C)(=O)=O)N2C(=O)c3cccc(NC(=O)COCCOCCOCCOCCNc4cccc5c4C(=O)N(C4CCC(=O)NC4=O)C5=O)c3C2=O)ccc1OC (stereo partly drawn) [Compound B48, 14-((2-(2,6-Dioxopiperidin-3-yl)-1,3-dioxoisoindolin-4-yl)amino)-N-(2-((S)-1-(3-ethoxy-4-methoxyphenyl)-2-(methylsulfonyl)ethyl)-1,3-dioxoisoindolin-4-yl)-3,6,9,12-tetraoxatetradecan-1-amide] | – | ≥ 60
14 | CCOc1cc([C@@H](CS(=O)(=O)C2CC2)N2C(=O)c3csc(NC(C)=O)c3C2=O)ccc1OC [Compound A6, (S)—N-(5-(2-(cyclopropylsulfonyl)-1-(3-ethoxy-4-methoxyphenyl)ethyl)-4,6-dioxo-5,6-dihydro-4H-thieno[3,4-c]pyrrol-1-yl)acetamide] | < 20 | 20 to 40
15 | CCOc1cc([C@@H](CS(C)(=O)=O)N2C(=O)c3cc(CCCN4CCC(c5cc(F)cc6c5CN(C5CCC(=O)NC5=O)C6=O)CC4)cc(NC(C)=O)c3C2=O)ccc1OC (stereo partly drawn) [Compound B69, N-(6-(3-(4-(2-(2,6-Dioxopiperidin-3-yl)-6-fluoro-1-oxoisoindolin-4-yl)piperidin-1-yl)propyl)-2-((S)-1-(3-ethoxy-4-methoxyphenyl)-2-(methylsulfonyl)ethyl)-1,3-dioxoisoindolin-4-yl)acetamide] | 40 to 60 | ≥ 60
16 | COc1ccc(N2Cc3sccc3C2=O)cc1OCCCCCCCN1CCC(c2cc(F)cc3c2CN(C2CCC(=O)NC2=O)C3=O)CC1 (centres unmarked) [Compound B80, 3-(6-Fluoro-4-(1-(7-(2-methoxy-5-(4-oxo-4,6-dihydro-5H-thieno[2,3-c]pyrrol-5-yl)phenoxy)heptyl)piperidin-4-yl)-1-oxoisoindolin-2-yl)piperidine-2,6-dione] | – | ≥ 60
17 | O=C1CC(c2ccc(OCCCCCCCN3CCC(c4cc(F)cc5c4CN(C4CCC(=O)NC4=O)C5=O)CC3)c(OC3CCCC3)c2)CN1 (centres unmarked) [Compound B57, 3-(4-(1-(7-(2-(Cyclopentyloxy)-4-(5-oxopyrrolidin-3-yl)phenoxy)heptyl)piperidin-4-yl)-6-fluoro-1-oxoisoindolin-2-yl)piperidine-2,6-dione] | – | < 20
18 | CC(=O)NC(=O)C(C)N1Cc2c(cc(F)cc2C2CCN(CCCCCCCCCOc3cc(C(=O)Nc4c(Cl)cncc4Cl)ccc3OC(F)F)CC2)C1=O (centres unmarked) [Compound B85, 3-((9-(4-(2-(1-Acetamido-1-oxopropan-2-yl)-6-fluoro-1-oxoisoindolin-4-yl)piperidin-1-yl)nonyl)oxy)-N-(3,5-dichloropyridin-4-yl)-4-(difluoromethoxy)benzamide] | – | 20 to 40
19 | CCOc1cc([C@@H](CS(C)(=O)=O)N2C(=O)c3cc(CCCCC(=O)N4CCC(C#Cc5cccc6c5CN(C5CCC(=O)NC5=O)C6=O)CC4)cc(NC(C)=O)c3C2=O)ccc1OC (stereo partly drawn) [Compound B16, N-(6-(5-(4-((2-(2,6-dioxopiperidin-3-yl)-1-oxoisoindolin-4-yl)ethynyl)piperidin-1-yl)-5-oxopentyl)-2-((S)-1-(3-ethoxy-4-methoxyphenyl)-2-(methylsulfonyl)ethyl)-1,3-dioxoisoindolin-4-yl)acetamide] | ≥ 60 | ≥ 60
20 | Cc1ncsc1-c1ccc(CNC(=O)[C@@H]2C[C@@H](O)CN2C(=O)[C@@H](NC(=O)CCCCCCCCOc2cc(C(=O)Nc3c(Cl)cncc3Cl)ccc2OCC2CC2)C(C)(C)C)cc1 [Compound B86, (2S,4R)-1-((S)-2-(9-(2-(Cyclopropylmethoxy)-5-((3,5-dichloropyridin-4-yl)carbamoyl)phenoxy)nonanamido)-3,3-dimethylbutanoyl)-4-hydroxy-N-(4-(4-methylthiazol-5-yl)benzyl)pyrrolidine-2-carboxamide] | – | ≥ 60
21 | CCOc1cc([C@@H](CS(C)(=O)=O)N2C(=O)c3cc(C#CCCCCCN4CCC(c5cc(F)cc6c5CN(C5CCC(=O)NC5=O)C6=O)CC4)cc(NC(C)=O)c3C2=O)ccc1OC (stereo partly drawn) [Compound B47, N-(6-(7-(4-(2-(2,6-dioxopiperidin-3-yl)-6-fluoro-1-oxoisoindolin-4-yl)piperidin-1-yl)hept-1-yn-1-yl)-2-((S)-1-(3-ethoxy-4-methoxyphenyl)-2-(methylsulfonyl)ethyl)-1,3-dioxoisoindolin-4-yl)acetamide] | – | ≥ 60
